One experiment has as its system HeLa cells. The experiment in a line: HeLa cell 24 hr ploidy assay (DNA content). The class given is cell-based. The following applies: HeLa cells, 4N ploidy, average, read-out: 24h_4NPloidy EC50_IP (uM Avg). How it is done: HeLa cell 24 hr ploidy assay protocol
The purpose of this assay is to evaluate the ability of selected individual compounds to induce Deoxyribonucleic acid (DNA) content (ploidy) in cells through failed cell division. Cell cycle analysis is a rapid and efficient way to evaluate the status of DNA content (ploidy) of a given cell. HeLa cells (1×10^4 HeLa cells/well) in 100 ul of media (MEM+10% FBS) were plated in 96-well plates (Packard View) and cultured for 24 hrs at 37° C. maintained in a 5% CO2 atmosphere. […] The compounds were serially diluted in DMSO (0.25% final concentration). The cells were fixed (3.7% Formaldehyde and 1% glutaraldehyde) and permeabilized (1×PBS with 1% BSA and 0.2% Triton X-100) in preparation for nuclear staining. The well plates were stained for 45 minutes at RT in the dark using Hoechest 33342 nuclear stain at 0.5 ug.ml (Stock of 10 mg/ml, Invitrogen, CA, Cat #H3570). The nuclear stain was removed by aspiration and the cells were washed with wash buffer. A Cellomics Array Scan Vti plate reader was used to acquire the DNA ploidy data of the cells using Cell Cycle bioapplication. Numbers for each of “valid cell count/well”, “% of 4N cells” and “% of >4Ncells” were calculated with the assistance of an Activity Base 5.1ca software and dose curves were generated using an XLFit software. With XLFit, final EC50 IP and EC50 transit values, as well as the Max and Min, were calculated for each curve.
`Clc1ccc(-c2nnc(Nc3ccc(Sc4ccnc5cccnc45)cc3)c3ccccc23)cc1` [compound 308]: the EC50 was 0.006 µM.

The same experiment, now with this note: Homo sapiens, HeLa, 4N ploidy, average, read-out: 24h_4NPloidy EC50_IP (uM Avg).
On to `CCc1cc(-c2ccccc2)nnc1Nc1ccc(Oc2ccnc3cc(C(N)=O)ccc23)cc1` [compound 49, 4-((4-((4-ethyl-6-phenyl-3-pyridazinyl)amino)phenyl)oxy)-7-quinolinecarboxamide], for which the EC50 worked out at 0.028 µM.

As to `Cc1csc(-c2nnc(Nc3ccc(Oc4ccnc5cc(C(N)=O)ccc45)cc3)c3ccccc23)n1` [compound 95], the EC50 came to 0.167 µM.

Turning to `N#Cc1ccc2c(Oc3ccc(Nc4nnc(-c5cccc(O)c5)c5ccccc45)cc3)ccnc2c1` [compound 93], the EC50 worked out at 0.025 µM.

Consider `COc1ccc(-c2nnc(Nc3ccc(Oc4ccnc5cc(OC)cnc45)cc3)c3ccccc23)cc1` [Example 37, N-(4-(7-methoxy-1,5-naphthyridin-4-yloxy)phenyl)-4-(4-methoxyphenyl)phthalazin-1-amine], for which the EC50 worked out at 0.052 µM.

In the case of `COc1cnc2c(Oc3ccc(Nc4nnc(-c5ccccc5)c5ccccc45)nc3)ccnc2c1` [compound 135], the EC50 was determined as 0.449 µM.

On to `COc1cc2ncnc(Oc3ccc(Nc4nnc(-c5cc(C)ccn5)c5ccccc45)cc3)c2cc1OC` [compound 123], for which the EC50 stood at 0.077 µM.

For the compound `COc1cc2nccc(Oc3ccc(Nc4nnc(-c5ccc(C(C)(C)C)cc5)c5ccccc45)cc3)c2cc1OC` [compound 106], the EC50 was 0.033 µM.

Regarding `COc1ccc2c(Oc3ccc(Nc4nnc(-c5cccc(OC)n5)c5ccccc45)cc3)ccnc2c1` [compound 100], the EC50 came to 0.02 µM.

With `COc1cnc2c(Oc3ccc(Nc4nnc(-c5ccncc5OC)c5ccccc45)cc3)ccnc2c1` [compound 130], the EC50 is greater than 1.2 µM.

Consider `COc1cc2ncnc(Oc3ccc(Nc4nnc(-c5cc(C)cs5)c5ccccc45)cc3)c2cc1OC` [compound 153], for which the EC50 turned out to be 0.001 µM.

Staying with this experiment, now noted: Homo sapiens, HeLa, HeLa cells, 4N ploidy, average, read-out: 24h_4NPloidy EC50_IP (uM Avg).
On to `COc1cnc2c(Oc3ccc(Nc4nnc(-c5ccc(N(C)C)cc5)c5ccccc45)cc3)ccnc2c1` [compound 194], for which the EC50 stood at 0.033 µM.

Regarding `COc1cnc2c(Sc3ccc(Nc4nnc(C5CC5)c5ccccc45)cc3)ccnc2c1` [compound 541], the EC50 amounted to 0.038 µM.

For `COc1cc(OC)c2c(Sc3ccc(Nc4nnc(-c5cc(C)cs5)c5ccccc45)cc3)ccnc2c1` [compound 439], the EC50 turned out to be 0.113 µM.

In the case of `COCCOCCOc1ccc2nccc(Sc3ccc(Nc4nnc(-c5ccc(Cl)cc5)c5ccccc45)cc3)c2n1` [compound 475], the EC50 amounted to 0.017 µM.

For the compound `c1ccc(-c2nnc(Nc3ccc(Oc4ccnc5cc(-c6ccsc6)ccc45)cc3)c3ccccc23)cc1` [compound 339], the EC50 is 0.027 µM.

For the compound `FC(F)(F)Oc1ccc2nccc(Oc3ccc(Nc4nnc(-c5ccc(Cl)cc5)c5ccccc45)cc3)c2c1` [compound 574], the EC50 turned out to be 0.119 µM.

Consider `Clc1ccc(-c2nnc(Nc3ccc(Sc4ccnc5ccoc45)cc3)c3ccccc23)cc1` [compound 465], for which the EC50 came to 0.02 µM.

With `Cc1csc(-c2nnc(Nc3ccc(Sc4ccnc5ccsc45)cc3)c3ccccc23)c1` [compound 366], the EC50 turned out to be 0.002 µM.

On to `COc1cnc2c(Oc3ccc(Nc4nnc(-c5cccc(C(=O)N(C)C)c5)c5ccccc45)cc3)ccnc2c1` [compound 226], for which the EC50 is greater than 1.2 µM.

As for `COc1cc(F)cc2nccc(Oc3ccc(Nc4nnc(-c5ccc(Cl)cc5)c5ccccc45)cc3)c12` [compound 437], the EC50 was 0.005 µM.

On to `CCc1cc(-c2ccc(Cl)cc2)nnc1Nc1ccc(Oc2ccnc3cc(OC)cnc23)cc1` [compound 256], for which the EC50 turned out to be 0.049 µM.

Regarding `COc1cnc2c(Sc3ccc(Nc4nnc(-c5cc(C)cs5)c5ccccc45)cc3)ccnc2c1` [compound 271, N-(4-(7-methoxy-1,5-naphthyridin-4-ylthio)phenyl)-4-(4-methylthiophen-2-yl)phthalazin-1-amine], the EC50 came out at 0.004 µM.

Consider `CCc1cc(-c2ccc(C)cc2)nnc1Nc1ccc(Oc2ccnc3cc(OC)cnc23)cc1` [compound 307], for which the EC50 stood at 0.023 µM.

As for `COC1CCN(c2nnc(Nc3ccc(Oc4ccnc5ccoc45)cc3)c3ccccc23)CC1` [compound 478], the EC50 was found to be 0.381 µM.

For the compound `Clc1ccc(-c2nnc(Nc3ccc(Sc4ccnc5[nH]ncc45)cc3)c3ccccc23)cc1` [compound 359], the EC50 was 0.013 µM.

With `COc1cnc2c(Sc3ccc(Nc4nnc(NCCc5ccccn5)c5ccccc45)cc3)ccnc2c1` [compound 537], the EC50 turned out to be 0.002 µM.

On to `N#Cc1cc2nccc(Sc3ccc(Nc4nnc(-c5ccc(Cl)cn5)c5ccccc45)cc3)c2s1` [compound 460], for which the EC50 came to 0.041 µM.

For the compound `COc1ccc2c(Oc3ccc(Nc4nnc(-c5ccc(Cl)cc5)c5c4CCC5)cc3)ccnc2c1` [compound 412], the EC50 is greater than 1.2 µM.

As to `Cc1ccc(-c2nnc(Nc3ccc(Sc4ccnc5ccoc45)cc3)c3ccccc23)cc1F` [Example 398, 4-(3-Fluoro-4-methylphenyl)-N-(4-(furo[3,2-b]pyridin-7-ylthio)phenyl)phthalazin-1-amine], the EC50 is 0.009 µM.

Take `COc1cnc2c(Oc3ccc(Nc4nnc(-c5ccc(C)cc5)c5ccccc45)cc3F)ccnc2c1` [compound 187]: the EC50 amounted to 0.006 µM.

`COc1cnc2c(Oc3ccc(Nc4nnc(-c5cnc6[nH]ccc6c5)c5ccccc45)cc3)ccnc2c1` [compound 280]: the EC50 worked out at 0.08 µM.

`Fc1cc(F)c2c(Sc3ccc(Nc4nnc(-c5ccccc5)c5ccccc45)cc3)ccnc2c1` [compound 311]: the EC50 stood at 0.055 µM.

For the compound `Clc1ccc(-c2nnc(Nc3ccc(Sc4ccnc5ccncc45)cc3)c3ccccc23)cc1` [compound 426], the EC50 worked out at 0.008 µM.

For `COc1ccc2nccc(Oc3ccc(Nc4nnc(-c5ccc6c(c5)OCO6)c5ccccc45)cc3)c2n1` [compound 551], the EC50 came out at 0.002 µM.

Take `N#Cc1ccc2nccc(Oc3ccc(Nc4nnc(-c5ccccc5)c5ccccc45)cc3)c2c1` [compound 592]: the EC50 is 0.147 µM.

Take `Cc1csc(-c2nnc(Nc3ccc(Sc4ccnc5ccc(=O)[nH]c45)cc3)c3ccccc23)c1` [compound 589]: the EC50 worked out at 0.007 µM.

Consider `CCc1cc(-c2ccc3c(c2)OCO3)nnc1Nc1ccc(Oc2ccnc3cc(OC)cnc23)cc1` [compound 594], for which the EC50 was 0.202 µM.

On to `COc1cnc2c(Oc3ccc(Nc4nnc(-c5ccc(SC)cc5)c5ccccc45)cc3)ccnc2c1` [compound 237], for which the EC50 was 0.03 µM.

Regarding `COc1cnc2c(Oc3ccc(Nc4nnc(N5CC[C@H]6CCCC[C@H]6C5)c5ccccc45)cc3)ccnc2c1` [compound 173], the EC50 stood at 0.006 µM.

With `Cc1noc(-c2cc3nccc(Sc4ccc(Nc5nnc(-c6ccccc6)c6ccccc56)cc4)c3s2)n1` [compound 303, N-(4-((2-(3-methyl-1,2,4-oxadiazol-5-yl)thieno[3,2-b]pyridin-7-yl)thio)phenyl)-4-phenyl-1-phthalazinamine], the EC50 came to 0.25 µM.

As to `COc1cc2nccc(Sc3ccc(Nc4nnc(-c5ccc(Cl)cc5)c5ccccc45)cc3)c2[nH]c1=O` [Example 406, 8-(4-(4-(4-Chlorophenyl)phthalazin-1-ylamino)phenylthio)-3-methoxy-1,5-naphthyridin-2(1H)-one], the EC50 was less than 0.0023 µM.

Consider `CN(c1ccc(Oc2ccnc3ccc(=O)[nH]c23)cc1)c1nnc(-c2ccc(Cl)cc2)c2ccccc12` [compound 500], for which the EC50 was greater than 1.2 µM.

For `COc1ccc2c(Sc3ccc(Nc4nnc(-c5ccc(Cl)cc5)c5ccccc45)cc3)ccnc2c1` [compound 334], the EC50 came out at 0.018 µM.
